Laboratory results taken from paper PMC5548701, “Selective targeting of melanoma using N-(2-diethylaminoethyl) 4-[^18F]fluoroethoxy benzamide (4-[^18F]FEBZA): a novel PET imaging probe” (EJNMMI Research, 2017).
Entries after “also recorded” stand apart in the source; their conditions may differ. Where two headings read alike, the source gives them in different places.

What was measured:
B16F1 melanoma cells = experiment: in vitro cell binding, influence of incubation time and temperature; assay type: cell-based, murine; conditions: 2.5 × 10^5 cells/well, percent of total radioactivity added
Procedure: The in vitro cell binding was assessed by growing B16F1 cells in culture flasks to 80–90% confluence, trypsinizing, washing in PBS (pH 7.4), aliquoting into 12-well plates and allowing adherence to the wells overnight. Initially, we studied the influence of the incubation time and temperature on the binding to B16F1 melanoma cells. For this study, 12-well plates containing ~2.5 × 10^5 cells/well were incubated at 0, 22, and 37 °C with 4-[^18F]FEBZA in quadruplicate sets for 15, 30, 60, 120, and 180 min. After the incubation, the media were removed, and each well was washed with fresh ice-cold media (2 × 2 mL). The adherent cells were removed by lysing cells in 500 μL of PBS containing 10% Triton X-100 (Sigma-Aldrich, St. Louis, MO). The combined washes and lysate were analyzed for radioactivity content using a γ-counter.

HT-29 tumor = experiment: microPET imaging in mouse bearing HT-29 tumor; assay type: in vivo, mice
Procedure: (§1) In vivo imaging of 4-[^18F]FEBZA in mice bearing B16F1 (n = 2) and HT-29 (n = 1) tumor was performed using a P4 microPET™ scanner (Concorde Microsystems, Inc., Knoxville, TN). After administering ~100 μCi of 4-[^18F]FEBZA via tail-vein injection, whole body PET scans were acquired in list mode. The images were reconstructed using filtered back projection with attenuation correction. Regions Of Interest (ROIs) were drawn on select organs using the summed image from the entire scan acquisition session, and the data were analyzed using ASIPro software (Siemens Preclinical Solutions, Knoxville, TN). The time activity curves (TACs) were generated from the list mode data reconstructed into multiple 5-min frames.

B16F1 tumor = experiment: microPET imaging in mice bearing B16F1 tumor; assay type: in vivo
Procedure: as §1

B16F1 cells = experiment: homologous competitive binding assay on fixed B16F1 cells; set-up: species or system murine; conditions: homologous competition with unlabeled 4-FEBZA, 1 h
Procedure: After adding 0.1 nmol of 4-[^18F]FEBZA/well as the radioligand, unlabeled 4-FEBZA (2) was added to the quadruplicate sets of wells in concentrations ranging from 10^−11 to 10^−4 M and the plates were incubated for an hour at 37 °C under 5% CO2. At the end of the incubation, the media were removed, and the cells were washed with 500 μL of ice-cold media. The cells were lysed using 1 mL of phosphate-buffered saline containing 10% Triton X-100, and the lysates were collected in culture tubes to measure the radioactivity contents using a γ-counter. We performed a non-linear regression analysis of the decay-corrected CPM values to calculate the inhibition constant value (IC50), the concentration of competitor required to inhibit 50% of radiotracer binding, utilizing the GraphPad Prism software program (GraphPad Software, Inc., CA).

standardized uptake value (SUV) of tumor from microPET images (HT-29 tumor): 0.25 ± 0.04
standardized uptake value (SUV) of tumor from microPET images (B16F1 tumor; B16F1 tumor): 1.53 ± 1.01
radioactivity level in B16F1 tumor from microPET time activity curve (B16F1 tumor; by 47 min): over 3.5 %IA/g tumor
IC50 (B16F1 cells; read-out: IC50, first of two distinct binding sites): 1.8 nM
IC50 (B16F1 cells; read-out: IC50, second of two distinct binding sites): 1300 nM
SMILES: CCN(CC)CCNC(=O)c1ccc(OCC[18F])cc1 [4-[^18F]FEBZA, N-(2-diethylaminoethyl) 4-[^18F]fluoroethoxybenzamide]
total binding to B16F1 cells (B16F1 melanoma cells; 22 °C): 44.45 ± 0.61%
total binding to B16F1 cells (B16F1 melanoma cells; 37 °C, 1 h incubation): 60.03 ± 0.48%
visibility of tumor on microPET scans (HT-29 tumor): not visible; also recorded: not discernable
time post-injection by which tumor is clearly visible on microPET images (B16F1 tumor; B16F1 melanoma tumor): ≤ 10 min
